{
  "source": "patent US6716628B2",
  "about": "“Chondrogenesis promoters and indolin-2-one derivatives” (Chugai Seiyaku Kabushiki Kaisha, priority 1999, dated 2004)",
  "key": {"[1]": {"system": "rat primary culture articular chondrocytes", "assay": "Uptake of 35S-labeled sulfuric acid into glycosaminoglycan (cartilage matrix synthesis)", "assay_type": "cell-based", "details": "10 μmol/L of compound, vs ethanol 1% final concentration control solvent", "source_text": "(§1) Articular chondrocytes were trimmed from the femoral knee joint of 6-week-old male SD rats (Nihon SLC Corp.) using a scalpel, and then digested in 0.3% collagenase (WORTHINGTON Corp.) and cultivated (Calcif. Tissue Int. 19:179-187,1975).\nThe isolated articular chondrocytes were used to measure glycosaminoglycan synthesis in the cartilage matrix by measurement of the uptake of ^35S-labeled sulfuric acid (Amersham Co., Ltd.) into glycosaminoglycan. Specifically, the articular chondrocytes were cultured in a 96-well cell culturing plate (FALCON Corp.) to a cell density of 10,000 per well. […]\nWhen the chondrocytes reached confluency, the medium was exchanged with one having a serum concentration of 0.3% and culturing was carried out overnight, after which the medium was exchanged with the same type also containing 10 μmol/L of compound A, and then after 3 hours, ^35S-labeled sulfuric acid (Amersham Co., Ltd.) was added at 0.5 μCi per well and culturing was carried out for 24 hours. […] The sample was then filtered with glass fiber filter paper (Toyo Filter Paper Corp.), the filter paper was washed 3 times with 2 mL of 1% cetylpyridinium chloride (20 mmol/L), one each was placed in a liquid scintillation counting vial (PACKARD Corp.), 10 mL of scintillator (Nacalai Tesque Corp.) was poured in, and the radioactivity was measured with a liquid scintillation counter (PACKARD Corp.)."}, "[2]": {"system": "rat primary culture articular chondrocytes", "assay": "Uptake of 3H-labeled thymidine (cell growth)", "assay_type": "cell-based", "details": "10 μmol/L of compound, vs control solvent", "method": "as §1\nUptake of ^3H-labeled thymidine (Amersham Corp.) was measured to determine the cell growth. For the measurement, the isolated articular chondrocytes were cultured in a 96-well cell culturing plate (FALCON Corp.) to a cell density of 10,000 per well. The medium used was an equivalent mixture of Dulbecco MEM containing fetal bovine serum (final concentration: 10%), 100 U/mL of penicillin (Meiji Seika Co., Ltd.) and 100 μg/mL of streptomycin (Banyu Pharmaceutical Corp.), and Ham F-12 medium (both by GIBCO Corp.). After 60-70% of the cells reached confluency, the medium was exchanged with one having a fetal bovine serum concentration of 0.3% and culturing was carried out overnight. On the following day, the medium was exchanged with the same type also containing compound A at a final concentration of 0.1, 1.0 or 10 μmol/L and 0.3% fetal bovine serum. […] The filter paper was soaked with plastic scintillator (Wallac Corp.), and the radioactivity was measured with a scintillation counter (Wallac Corp.). […]"}},
  "data": [
    {"compound": "CCOC(CN1C(=O)[C@](CC(=O)Nc2ccc(C)cc2)(NC(=O)Nc2ccc(C)cc2)c2ccccc21)OCC", "note": "[Compound A, (+)-1-(2,2-diethoxyethyl)-3-((4-methylphenyl)aminocarbonylmethyl)-3-(N′-(4-methylphenyl)ureido)indolin-2-one]", "values": [
      {"measurement": "uptake of 35S-labeled sulfuric acid", "setting": "[1]", "value": "significantly increased"},
      {"measurement": "uptake of 3H-labeled thymidine", "setting": "[2]", "value": "significantly increased"}
    ]}
  ]
}
